{"source": "patent US4179467A", "about": "“Dopamine hydroxylase inhibiting 2-amino-cyclopent-1-ene-1-thiocarboxylic acid-disulfides” (Richter Gedeon Vegyeszeti Gyar Rt., priority 1976, dated 1979)", "key": {"[1]": {"system": "mice", "assay": "in vivo"}, "[2]": {"system": "dopamine-β-hydroxylase", "assay": "Noradrenaline level of heart in rats, % of controls", "assay_type": "in vivo, male Wistar rats", "conditions": "rat, 4 hours", "procedure": "(§1) The dopamine-β-hydroxylase inhibiting effects of the new compounds according to the invention were examined by the following tests:\n(§2) The tests were performed on male Wistar rats weighing 150 to 200 g. The dopamine-β-hydroxylase inhibiting effects of the compounds were evaluated by determining the change of noradrenaline, dopamine and adrenaline levels of the cerebrum, heart, spleen and adrenal gland. The serotonine and 5-hydroxy-indolylacetic acid levels of the cerebrum were also determined. The measurements were performed as follows:\n(§3) The animals were decapitated, the cerebrum, heart, spleen and adrenal gland were removed quickly, and the organs were frozen by placing them on a metal sheet cooled with dry ice. The frozen organs were stored for a maximum of one night at -20° C.\n(§4) The organs were weighed in the frozen state and then homogenized in 5.0 ml of 0.4 N perchloric acid containing 0.05% of EDTA-Naa and 0.1% of Na2 S2 O5. The homogenized mixtures were centrifuged as described above for the treatment of adrenal gland, the supernatants were decanted, and the pH was adjusted to 8.0±0.1 with a 0.1 molar tris buffer containing 20 g/l of NaOH and 25 g/l of EDTA-Na2. 100 mg of prepared Al2 O3 (Anton et al.: J. Pharm. Ther. 138, 360 (1962)) were added to the samples, and the mixtures were shaken mechanically for 20 minutes. Thereafter the Al2 O3 was washed with 2×10 ml of distilled water, and noradrenaline was eluted with 1.0 ml of 0.05 N perchloric acid. 0.5 ml samples of the eluate were used for the determination of noradrenaline. Noradrenaline was determined according to the method of Shellenberger et al. (Anal. Biochem. 39, 356 (1971)), with the following modifications of the basic procedure: 0.5 ml of 0.1 molar Na-K-phosphate buffer, containing 9 g/l of EDTA-Na2, were added to 0.5 ml of the eluate, and the catecholamines (noradrenaline in the examination of heart and spleen and noradrenaline and dopamine in the examination of the cerebrum) were oxidized with 0.1 ml of a 0.1 N iodine solution in 5% potassium iodide. After exactly 2 minutes, oxidation was stopped by adding 0.25 ml of a 2.5% sodium sulfite solution in 4.4 N aqueous sodium hydroxide to the mixture. 2 minutes after the introduction of the alkaline sulfite solution, 0.2 ml of concentrated acetic acid was added to the samples, whereupon the pH decreased to 4.4 to 4.5. Thereafter the samples were placed for 5 minutes in a drying oven heated to 100° C., and then the samples were cooled with ice water. The fluorescency of noradrenaline was measured with an OPTON spectrophotometer at wavelengths of 380 nm (excitation) and 490 nm (emission).\n(§5) In the tests disulfiram, 2,2-dipyridyl, bis(1-methyl-4-homopiperazinyl-thiocarbonyl)-disulfide, sodium diethyldithiocarbamate and N-phenyl-N'-(2-thiazolyl)-thiourea were used as reference substances. The values indicated in Table 1 are the percentages in relation to the amine levels of the controls measured in the same tests (±standard error). The statistical calculations were performed on a TPA/i type computer, using Student's t test."}, "[3]": {"system": "dopamine-β-hydroxylase", "assay": "Adrenaline level of adrenal gland in rats, % of controls", "assay_type": "in vivo, male Wistar rats", "conditions": "rat, 4 hours", "procedure": "as §1, §2, §3\nThe adrenal glands were freed from fat and homogenized in 3.0 ml of ice-cold 0.4 N perchloric acid. The homogenized mixtures were centrifuged for 10 minutes at 0° C. with a speed of 3200 r.p.m. using a Janetzky K-70 type centrifuge. 0.05 ml samples were taken from the supernatant, and the adrenaline level was determined directly by the method of Laverty et al. (Anal. Biochem. 22, 269 (1968)).\nas §5"}, "[4]": {"system": "dopamine-β-hydroxylase", "assay": "Noradrenaline and dopamine levels of the cerebrum (brain) in rats, % of controls", "assay_type": "in vivo, male Wistar rats", "conditions": "rat, 4 hours", "procedure": "as §1, §2, §3, §4\nThe brains were homogenized in 10 parts by volume of 0.4 N perchloric acid. The homogenized mixture was stored at -20° C. overnight; thereafter it was thawed and centrifuged as described above. A sample of the homogenized mixture corresponding to 0.5 g of brain was removed, the pH of the sample was adjusted to 8.0±0.1 with 0.1 molar tris-buffer of the above composition, and the sample was processed as described above for the determination of the noradrenaline content of heart and spleen, with the difference that 1.5 ml of 0.05 N perchloric acid was used as the eluting agent. 0.5 ml of the eluate was used to determine the noradrenaline and dopamine contents. The measurement was performed as described above, with the difference that samples of 0.5 ml were applied for the recording of the flourescence of noradrenaline. The residue was placed for 50 minutes into a drying oven heated to 100° C., thereafter the sample was cooled with ice water, and the fluorescence of dopamine was recorded at wavelengths of 325 nm (excitation) and 380 nm (emission).\nIn a further test series the serotonine and 5-hydroxy-indolylacetic acid contents were also determined, in addition to the determination of the noradrenaline and dopamine content, from the same sample. […]"}, "[5]": {"system": "serotonine and 5-hydroxy-indolylacetic acid levels of the cerebrum", "assay": "Serotonine and 5-hydroxy-indolylacetic acid levels of the cerebrum (brain) in rats, % of controls", "assay_type": "in vivo, male Wistar rats", "conditions": "rat, i.p., 4 hours", "procedure": "as §2, §3\nIn a further test series the serotonine and 5-hydroxy-indolylacetic acid contents were also determined, in addition to the determination of the noradrenaline and dopamine content, from the same sample. In this instance the brains were homogenized in 10 ml of 75% ethanol, 0.2 ml of EDTA-Na2 and 5% of ascorbic acid were added to the homogenized mixtures, and the homogenized mixtures were maintained at -20° C. overnight. The mixtures were centrifuged as described above, and 5.0 ml samples of the supernatant were removed. The samples were diluted with equal volumes of distilled water, and poured onto ion exchange columns of 0.5×1.5 cm dimensions, filled with buffered Amberlite CG-30 (200 to 400 mesh). The columns were washed with 5 ml of distilled water followed by 1.0 ml of 0.2 N hydrochloric acid, and the first effluent and the aqueous wash were collected for the determination of 5-hydroxy-indolylacetic acid. Elution was continued with a further 1.2 ml quantity of 0.2 N hydrochloric acid in order to remove noradrenaline, dopamine and serotonine. Samples of 0.3 ml were used for the determinations.\nNoradrenaline and dopamine were determined by the method of Shellenberger, modified as described above, whereas serotonine was determined by the method of Curzon et al. (Brit. J. Pharmacol. 39, 653 (1970)). The basic method was modified as follows: A 0.5% solution of ortho-phthal(di)aldehyde in absolute ethanol was diluted with […] hydrochloric acid to 50-fold of its original volume, and 0.6 ml of the resulting 0.01% ortho-phthal(di)aldehyde solution were added immediately to 0.5 ml of the serotonine-containing sample. The sample was placed in a hot water bath for 10 minutes, thereafter cooled with tap water, and the flourescence was recorded at wavelengths of 360 nm (excitation) and 490 nm (emission).\n5-Hydroxy-indolylacetic acid was determined from the mixture of the first effluent and the aqueous wash. 10 ml of distilled water and 0.2 ml of concentrated hydrochloric acid were added to the mixture, and the sample was poured onto a 0.8×4.0 cm column filled with Sephadex G-10. The column was washed with 15 ml of 0.1 N hydrochloric acid followed by 1.8 to 2.0 ml of 0.02 N aqueous ammonia, and then 5-hydroxy-indolylacetic acid was eluted with further 2.0 ml of the aqueous ammonia. 0.5 ml samples were used in the measurements, and the determination was performed according to the method of Korf et al. (Biochem. Pharmacol. 20, 659 (1971)).\nas §5"}, "[6]": {"assay": "Toxicity, LD50, rats", "conditions": "rat, in vivo, po"}, "[7]": {"assay": "Toxicity, LD50, rabbits", "conditions": "rabbit, in vivo, po"}, "[8]": {"system": "dopamine-β-hydroxylase", "conditions": "known compounds, literature; cited from earlier work"}}, "data": [{"compound": "Chlorofusaric acid", "values": [{"measurement": "LD50", "setting": "[1]; p.o.", "result": "470 ± 85", "unit": "mg/kg"}]}, {"compound": "CCCCNC1=C(C([O-])=S)CCC1.CCCCNC1=C(C([O-])=S)CCC1.[Zn+2]", "note": "[M-3, 2-(N-butyl)-amino-cyclopent-1-ene-thiocarboxylic acid (zinc salt)]", "values": [{"measurement": "Heart NA level (percentages in relation to the controls)", "setting": "[2]; i.p., 50 mg/kg", "result": "84.5±4.1", "unit": "%"}, {"measurement": "Heart NA level (percentages in relation to the controls)", "setting": "[2]; i.p., 100 mg/kg", "result": "91.5 ± 8.1", "unit": "%"}, {"measurement": "Heart NA level (percentages in relation to the controls)", "setting": "[2]; p.o., 500 mg/kg", "result": "108.8 ±3.2", "unit": "%"}, {"measurement": "Adrenal gland adrenaline level (% of controls)", "setting": "[3]; i.p., 50 mg/kg", "result": 66.3, "unit": "%"}, {"measurement": "Adrenal gland adrenaline level (% of controls)", "setting": "[3]; i.p., 100 mg/kg", "result": "60.5 ± 3.6", "unit": "%"}, {"measurement": "Adrenal gland adrenaline level (% of controls)", "setting": "[3]; p.o., 500 mg/kg", "result": "100.3 ±8.3", "unit": "%"}, {"measurement": "Brain DA level (percentages in relation to the controls)", "setting": "[4]; i.p., 50 mg/kg", "result": "112.2 ± 12.0", "unit": "%"}, {"measurement": "Brain NA level (percentages in relation to the controls)", "setting": "[4]; i.p., 50 mg/kg", "result": "85.0 ±9.1", "unit": "%"}, {"measurement": "Brain DA level (percentages in relation to the controls)", "setting": "[4]; i.p., 100 mg/kg", "result": "121.3 ± 6.1", "unit": "%"}, {"measurement": "Brain NA level (percentages in relation to the controls)", "setting": "[4]; i.p., 100 mg/kg", "result": "73.5 ± 3.2", "unit": "%"}, {"measurement": "Brain DA level (percentages in relation to the controls)", "setting": "[4]; p.o., 500 mg/kg", "result": "99.2 ±5.0", "unit": "%"}, {"measurement": "Brain NA level (percentages in relation to the controls)", "setting": "[4]; p.o., 500 mg/kg", "result": "98.9 ±2.5", "unit": "%"}, {"measurement": "LD50", "setting": "[1]; i.p.", "result": "~ 450 mg/kg"}]}, {"compound": "CCN(CC)C(=S)SSC(=S)N(CC)CC", "note": "[DS, bis(diethylthiocarbamoyl)-disulfide]", "values": [{"measurement": "Heart NA level (percentages in relation to the controls)", "setting": "[2]; i.p., 200 mg/kg", "result": 98, "unit": "%"}, {"measurement": "Heart NA level (percentages in relation to the controls)", "setting": "[2]; i.p., 400 mg/kg", "result": 102, "unit": "%"}, {"measurement": "Brain SE level (percentages in relation to the controls)", "setting": "[5]; 200 mg/kg", "result": 122, "unit": "%"}, {"measurement": "Brain SE level (percentages in relation to the controls)", "setting": "[5]; 400 mg/kg", "result": 117, "unit": "%"}, {"measurement": "LD50", "setting": "[6]", "result": "8600 ± 370", "unit": "mg/kg"}, {"measurement": "Adrenal gland adrenaline level (% of controls)", "setting": "[3]; i.p., 200 mg/kg", "result": 52, "unit": "%"}, {"measurement": "Adrenal gland adrenaline level (% of controls)", "setting": "[3]; i.p., 400 mg/kg", "result": 66, "unit": "%"}, {"measurement": "LD50", "setting": "[7]", "result": "1800 ± 130", "unit": "mg/kg"}, {"measurement": "Brain DA level (percentages in relation to the controls)", "setting": "[4]; i.p., 200 mg/kg", "result": 111, "unit": "%"}, {"measurement": "Brain NA level (percentages in relation to the controls)", "setting": "[4]; i.p., 200 mg/kg", "result": 22.5, "unit": "%"}, {"measurement": "Brain DA level (percentages in relation to the controls)", "setting": "[4]; i.p., 400 mg/kg", "result": 112, "unit": "%"}, {"measurement": "Brain NA level (percentages in relation to the controls)", "setting": "[4]; i.p., 400 mg/kg", "result": 24.1, "unit": "%"}, {"measurement": "dopamine-β-hydroxylase inhibiting effects, in words", "setting": "[8]", "result": "strong dopamine-β-hydroxylase inhibiting effects"}]}]}
